Test results published in ChEMBL document CHEMBL1201862, “PubChem BioAssay data set” (2004).
Activity calls are given as the source filed them. For most assays here, no stated cut-off is given here; in the data, active = IC50 of 5 µM or less and inactive = more.

Key:
[1] = toxicity to human hepatoma HepG2 cells – cell-based, cherry-picked samples, cytotoxicity control, dose response (AID 1159577); type: functional
[2] = P. falciparum Dd2 growth inhibitors, dose response, SYBR Green, cherry-picked samples (AID 1159567); type: functional, cell-based
[3] = BioA aminotransferase inhibition, coupled fluorescent readout – biochemical, coupled fluorescence displacement, 20-point, dry powder, dose response (AID 743357); type: functional
[4] = Dd2 malaria parasite growth inhibition potency – SYBR Green, dry powder samples, dose response (AID 1159566); type: functional, cell-based;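 further: potency for growth inhibition with lower SYBR green DNA signal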
[5] = growth inhibition of yeast DHODH-expressing 3D7 parasites – SYBR Green, dry powder samples, dose response (AID 1159570); type: functional, cell-based;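 further: parasite growth measured after 72 hours of compound exposure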
[6] = growth inhibition of PfATP4-mutant resistant parasites – NITD609-resistant line, SYBR Green, dry powder, dose response (AID 1159571); type: functional, cell-based;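 further: parasites synchronized at ring stage by sorbitol before testing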
[7] = cytotoxicity toward HT-29 cells – cell-based, CellTiter-Glo luminescence, IC50, dose response (AID 1117330); type: functional
[8] = cytotoxicity toward HCT116 cells – cell-based, CellTiter-Glo luminescence, IC50, dose response (AID 1117332); type: functional; settings: HCT-116
[9] = Reduced DLD-1 viability, concentration-response, CellTiter-Glo luminescence (AID 1117352); type: functional
[10] = cytotoxicity toward Colo320 cells – cell-based, CellTiter-Glo luminescence, IC50, dose response (AID 1117334); type: functional; settings: COLO 320
[11] = HCT116 cell viability decrease, GSK3B pretreatment – CellTiter-Glo, IC50, dose response (AID 1117339); type: functional; settings: HCT-116
[12] = CellTiter-Glo luminescence survival assay, SW480 colon tumor line, concentration-response curve, half-maximal inhibitory concentration (AID 1117338); type: functional
[13] = RKO cell viability reduction, dose response, CellTiter-Glo luminescence (AID 1117322); type: functional
[14] = SNU-C1 cell viability reduction, dose response, CellTiter-Glo luminescence (AID 1117323); type: functional, cell-based
[15] = Potency on glucagon-like peptide 1 release, dose-response in NCI-H716 cell line, half maximal inhibitory concentration (AID 1117344); type: functional, cell-based
[16] = IC50 of insulin release inhibition, rat insulinoma INS-1E line, 5 mM glucose, cell-based (AID 1117331); type: functional
[17] = glucagon-like peptide-1 release potency in STC-1, concentration-response, half-maximal inhibitory concentration in the STC-1 line (AID 1117345); type: functional, cell-based

Cc1cccc(S(=O)(=O)N2CCCCN3[C@@H](CO)[C@@H](c4ccc(C#CC(C)C)cc4)[C@@H]3C2)c1
AC50 [1]: 15.1 µM (active)
AC50 [2]: 1.18 µM (active)

COC(=O)c1ccc(N2CCN(C(=O)c3ccc4c(c3)OCO4)CC2)cc1
AC50 [3]: 12.4 µM (active)

CCC(=O)N1CCC2(CC1)CN(S(=O)(=O)c1ccccc1)[C@@H](CO)c1[nH]c3cc(OC)ccc3c12
AC50 [4]: 1.47 µM (active)
AC50 [5]: 1.31 µM (active)
AC50 [2]: 2.04 µM (active)
AC50 [6]: 0.961 µM (active)

CN1CCC(=C2c3ccccc3C=Cc3ccccc32)CC1 [CYPROHEPTADINE]
IC50 [7]: > 20 µM (inactive)
IC50 [8]: > 20 µM (inactive)
IC50 [9]: > 20 µM (inactive)
IC50 [10]: > 20 µM (inactive)
IC50 [11]: > 20 µM (inactive)
IC50 [12]: 5.92 µM (inactive)
IC50 [13]: 11.3 µM (inactive)
IC50 [14]: 10.8 µM (inactive)

COc1ccc(/C=N/NC(=O)c2ccncc2)cc1OC [VERAZIDE]
IC50 [15]: 20 µM (inactive)
IC50 [16]: > 33.3 µM (inactive)
IC50 [17]: > 40 µM (inactive)
